Assay results published in patent US8906953B2, “Pyrrolidine substitute flavones for the treatment of inflammatory disorders” (Piramal Enterprises Limited, priority 2010, dated 2014).

Assays:
VCAM-1 = test: TNF-α induced cell surface expression of VCAM-1 on HUVECs; type: cell-based; settings: Homo sapiens, HUVEC; TNF-α (1 ng/mL) stimulated HUVECs, 6 hours, n=2
Procedure: The assay was designed as in reference, Transplantation, 1997, 63(5), 759-764, the disclosure of which is incorporated herein by reference for the teaching of the assay.
Human umbilical vein endothelial cells (HUVECs) were obtained from Cascade Biologics (Oregon-USA). Cells were cultured in M-200 medium (Cascade Biologics) supplemented with low serum growth supplements (LSGS) (Cascade Biologics), penicillin-G (100 U/mL), streptomycin (100 μg/mL) and amphotericin B (50 ng/mL) (GIBCO). […] After TNF-α stimulation (1 ng/mL) (R&D Systems (Minneapolis, Minn.)) for 4 hours at 37° C. in an atmosphere of 5% CO2, supernatants were harvested and assayed for the expression of ICAM-1 (intercellular cell adhesion molecules), whereas the expressions of VCAM-1 (vascular cell adhesion molecules) and E-selectin were evaluated after 6 hours of stimulation. […] To quantitatively measure the amount of cell surface expressions of ICAM-1, VCAM-1 and E-selectin, ELISA assay was performed using anti-ICAM-1 (clone BBIG-I1), anti-VCAM-1 (clone BBIG-V1), anti-E-selectin (clone BBIG-E4) antibodies, isotype control mouse IgG1 (clone 11711.11) and the secondary antibody (anti-mouse IgG-HRP antibody) which were procured from R&D Systems (Minneapolis, Minn., USA). […]

TNF-α = test: LPS-induced TNF-α release in Balb/c mice; type: in vivo; settings: Mus musculus, plasma 1.5 hours post LPS (1 mg/kg i.p.)
Procedure: The assay was designed as in reference, J. Med. Bio. Res., 1997, 30, 1199-1207, the disclosure of which is incorporated herein by reference for the teaching of the assay. […] All suspensions were freshly prepared in 0.5% CMC. One hour later, LPS (1 mg/kg) (Escherchia coli, serotype 0127:B8, Sigma Chemical Co., St. Louis, Mo.) dissolved in sterile pyrogen-free saline was administered intra-peritoneally to the control group, standard treatment group (Rolipram, 30 mg/kg, p.o.) and test groups (compound of example 3), except the negative control group, which received normal saline. Blood samples were collected from anesthetized mice, with heparin as an anti-coagulant (25 IU per sample) 1.5 hours post LPS challenge. […] Percent inhibition of TNF-α release was calculated by comparing the TNF-α levels of the treatment groups with those of the control group.

IκBα = test: TNFα-induced IκBα phosphorylation and degradation, western blot in Jurkat cells; type: cell-based, human; settings: 0.1 μM, 0.1 nM TNF-α 0-90 minutes
Procedure: The method for IκBα degradation was designed as in reference, The Journal of Immunology, 1999, 103, 6800-6809, the disclosure of which is also incorporated by reference for the teaching of the assay.
Human Jurkat T-cells from American Type Culture Collection (ATCC) were cultivated in Rosewell Park Memorial Institute (RPMI) medium supplemented with 10% fetal bovine serum (FBS), penicillin (100 U/mL) and streptomycin (100 μg/mL) at 37° C. in humidified atmosphere of 95% air-5% CO2. Culture medium was changed every 2-3 days and always 24 hours before harvest. RPMI medium, FBS, CellLytic, anti-β-actin, sodium orthovanadate and anisomycin were purchased from Sigma-Aldrich (USA). TNF-α was purchased from R & D Systems (USA). Complete Protease inhibitor cocktail was procured from Roche.
Jurkat cells were preincubated with vehicle or the compound of example 3 (0.1 μM) for 1 hour in a 37° C., CO2 incubator. For MAPK experiments, the cells were stimulated with anisomycin (10 μg/mL) for 30 minutes. SB 203580 was used as a standard (1 μM). For studies pertaining to degradation of IκBα and IκBα (phospho) the cells were stimulated with 0.1 nM TNF-α for 0, 5, 15, 30, 60 and 90 minutes. […] Aliquots of the resulting extracts were analyzed for their protein content using the Coomassie Plus Protein Assay Reagent (Pierce) following manufacturer's instructions. […]

With `CN1CC[C@@H](c2c(O)cc(O)c3c(=O)cc(-c4ccc(C(F)(F)F)cc4Cl)oc23)[C@@H]1CO.Cl` [Compound of example 3, (+)-trans-2-(2-Chloro-4-trifluoromethyl-phenyl)-5,7-dihydroxy-8-(2-hydroxymethyl-1-methyl-pyrrolidin-3-yl)-chromen-4-one hydrochloride] the IC50 (VCAM-1) was 280 nM, the inhibition at 12.5 mg/kg (TNF-α; 12.5 mg/kg oral) was 53.2 ± 12.5% and the inhibition at 25 mg/kg (TNF-α; 25 mg/kg oral) was 66.8 ± 11.5%. It also gave an inhibition at 50 mg/kg (TNF-α; 50 mg/kg oral) of 82 ± 4.88%, an inhibition at 75 mg/kg (TNF-α; 75 mg/kg oral) of 77.3 ± 8.61% and an inhibition at 100 mg/kg (TNF-α; 100 mg/kg oral) of 92.6 ± 3.5%. For the same compound, the “TNFα-induced IkBα phosphorylation and degradation (western blot)” value (IκBα) was “blocks TNFα-induced IkBα phosphorylation and degradation”.
